Reference: ChEMBL document CHEMBL3137667, “[Drug-induced liver injury; fourteenth updated edition of the bibliographic database of liver injuries and related drugs]” (Gastroenterol Clin Biol, 2004)

Assays:
[1] = Highest frequency of moderate liver toxicity observed during clinical trials, expressed as a percentage. [column '% BIOL' in source]; settings: human
[2] = Highest frequency of acute liver toxicity observed during clinical trials, expressed as a percentage. [column '% AIGUE' in source]; settings: human
[3] = Times to onset, minimal and maximal, observed in the indexed observations. [column 'DELAI' in source]; settings: human
[4] = human, serum
[5] = human, serum; remark: listed apart in the source
[6] = human
[7] = human; remark: listed apart in the source
[8] = human; remark: listed apart in the source
[9] = human, serum, 4383 h
[10] = human; remark: listed apart in the source
[11] = human; remark: listed apart in the source
[12] = human; remark: listed apart in the source
[13] = human; remark: listed apart in the source
[14] = human; remark: listed apart in the source
[15] = human; remark: listed apart in the source
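Wherever Hepatotoxicity (association with vascular disease) is given: count of indexed literature references reporting vascular liver injury in humans, e.g. peliosis hepatitis, hepatic veno-occlusive disease or Budd-Chiari syndrome.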
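Wherever Hepatotoxicity (benign tumour) is given: value is a count of indexed literature references citing a benign tumour confirmed by histopathology.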
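Wherever Hepatotoxicity (choleostasis) is given: human cholestatic liver injury, shown by histopathology or by peak ALT or AST elevation over alkaline phosphatase ratio below 2, value counts indexed literature reports.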
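Wherever Hepatotoxicity (chronic liver disease) is given: chronic liver injury confirmed by histopathology or persistently raised serum aminotransferase activity beyond 6 months, value given as the count of indexed literature references.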
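Wherever Hepatotoxicity (cirrhosis) is given: value is a count of indexed literature references reporting cirrhosis confirmed by histopathology.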
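Wherever Hepatotoxicity (cytolytic) is given: human cytolytic liver injury, shown by histopathology or by a ratio above 5 of peak ALT or AST elevation to alkaline phosphatase elevation, value counts indexed references.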
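Wherever Hepatotoxicity (granulomatous hepatitis) is given: value is a count of indexed literature references reporting granulomatous liver disease confirmed by histopathology.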
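Wherever Hepatotoxicity (malignant tumour) is given: malignant tumour confirmed by histopathology, value gives the count of indexed literature references reporting it.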
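Wherever Hepatotoxicity (severe hepatitis) is given: human clinical data: severe hepatitis, meaning potentially life-threatening liver failure or clinically observed cases, the value counts how many indexed literature references report it.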
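Wherever Hepatotoxicity (steatosis) is given: steatosis confirmed by histopathology, value is the count of indexed references.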

Structure (SMILES) | Hepatotoxicity (moderate) [1] [%] | Hepatotoxicity (acute) [2] [%] | Hepatotoxicity (time to onset) [3] | Hepatotoxicity (moderate) [4] | Hepatotoxicity (acute) [5] | Hepatotoxicity (cytolytic) [6] | Hepatotoxicity (choleostasis) [7] | Hepatotoxicity (severe hepatitis) [8] | Hepatotoxicity (chronic liver disease) [9] | Hepatotoxicity (cirrhosis) [10] | Hepatotoxicity (granulomatous hepatitis) [11] | Hepatotoxicity (association with vascular disease) [12] | Hepatotoxicity (steatosis) [13] | Hepatotoxicity (malignant tumour) [14] | Hepatotoxicity (benign tumour) [15] | Hepatotoxicity (moderate) ([1]; Liver) [%] | Hepatotoxicity (acute) ([2]; Liver) [%] | Hepatotoxicity (severe hepatitis) ([8]; Liver) | also measured
CC(C)=CCC1C(=O)N(c2ccccc2)N(c2ccccc2)C1=O [FEPRAZONE] | 0 | 0 | 2 weeks - 1 month | 1 | 2 | 2 | 2 | 0 | 0 | 0 | 1 | 0 | 0 | 0 | 0 | – | – | – | –
Cc1ccc(-c2cc(C(F)(F)F)nn2-c2ccc(S(N)(=O)=O)cc2)cc1 [CELECOXIB] | – | – | 2 days - 3 weeks | 3 | 8 | – | – | – | 0 | 0 | – | 0 | 0 | 0 | 0 | 2 | 0 | 0 | Hepatotoxicity (cytolytic) ([6]; Liver): 5; Hepatotoxicity (choleostasis) ([7]; Liver): 4; Hepatotoxicity (granulomatous hepatitis) ([11]; Liver): 0
OCCN1CCN(CCCN2c3ccccc3Sc3ccc(Cl)cc32)CC1 [PERPHENAZINE] | 23.4 | 0.3 | 2 months | 2 | 5 | 1 | 4 | 0 | 0 | 0 | 0 | 0 | 0 | 0 | 0 | – | – | – | –
CCCCNc1cc(C(=O)O)cc(S(N)(=O)=O)c1Oc1ccccc1 [BUMETANIDE] | – | – | 2 weeks - 6 months | 3 | 0 | 0 | 0 | – | 0 | 0 | 0 | 0 | 0 | 0 | 0 | 1.1 | 0 | 0 | –
CCCCCCCCCCCCCCCCOP(=O)([O-])OCC[N+](C)(C)C [MILTEFOSINE] | 55 | 2.2 | 2 weeks | 5 | 3 | 3 | 0 | 0 | 0 | 0 | 0 | 0 | 0 | 0 | 0 | – | – | – | –
Cc1cccc(N2CC(CO)OC2=O)c1 (stereo not given) [TOLOXATONE] | 0 | 0 | 15 days - 10 months | 0 | 2 | 2 | 1 | 1 | 0 | 0 | 0 | 0 | 0 | 0 | 0 | – | – | – | –
Nc1nc(Cl)nc2c1ncn2[C@H]1C[C@H](O)[C@@H](CO)O1 [CLADRIBINE] | 13 | 9.1 | 2 weeks - 6 months | 4 | 2 | 1 | 0 | 0 | 0 | 0 | 0 | 1 | 0 | 0 | 0 | – | – | – | –
C[S+](CC[C@H](N)C(=O)[O-])C[C@H]1O[C@@H](n2cnc3c(N)ncnc32)[C@H](O)[C@@H]1O (stereo not given in full) [ADEMETIONINE] | 5 | 0 | 3 days | 2 | 1 | 1 | 0 | 0 | 0 | 0 | 0 | 0 | 0 | 0 | 0 | – | – | – | –
CN1C(C(=O)Nc2ccccn2)=C(O)c2sccc2S1(=O)=O [TENOXICAM] | – | – | 3 days - 5 days | 8 | 3 | – | – | – | 0 | 0 | – | 0 | 0 | 0 | 0 | 27 | 0 | 0 | Hepatotoxicity (cytolytic) ([6]; Liver): 2; Hepatotoxicity (choleostasis) ([7]; Liver): 2; Hepatotoxicity (granulomatous hepatitis) ([11]; Liver): 0
O=[N+]([O-])c1cc(Cl)cc(-c2cc(Cl)cc([N+](=O)[O-])c2O)c1O [NICLOFOLAN] | 0 | 0 | 1 week | 0 | 1 | 0 | 1 | 0 | 0 | 0 | 0 | 0 | 0 | 0 | 0 | – | – | – | –
CC(C)NCC(O)COc1ccc(CC(N)=O)cc1 (stereo not given) [ATENOLOL] | 10 | 0 | 2 days - 9 months | 1 | 2 | 1 | 1 | 0 | 0 | 0 | 0 | 0 | 1 | 0 | 0 | – | – | – | –
O=C1C(CC[S+]([O-])c2ccccc2)C(=O)N(c2ccccc2)N1c1ccccc1 (stereo not given) [SULFINPYRAZONE] | – | – | 10 days | 0 | 1 | 0 | 1 | – | 0 | 0 | 0 | 0 | 0 | 0 | 0 | 0 | 0 | 0 | –
CO[C@@]1(NC(=O)CSC[C@@H](N)C(=O)O)C(=O)N2C(C(=O)O)=C(CSc3nnnn3C)CS[C@@H]21 [CEFMINOX] | – | – | 9 days | 12 | 2 | – | – | – | 0 | 0 | – | 0 | 0 | 0 | 0 | 16.7 | 0.1 | 0 | Hepatotoxicity (cytolytic) ([6]; Liver): 0; Hepatotoxicity (choleostasis) ([7]; Liver): 0; Hepatotoxicity (granulomatous hepatitis) ([11]; Liver): 0
CC[C@H]1OC(=O)[C@H](C)[C@@H](O[C@H]2C[C@@](C)(OC)[C@@H](O)[C@H](C)O2)[C@H](C)[C@@H](O[C@@H]2O[C@H](C)C[C@H](N(C)C)[C@H]2O)[C@](C)(O)C[C@@H](C)/C(=N\OCOCCOC)[C@H](C)[C@@H](O)[C@]1(C)O [ROXITHROMYCIN] | 22.6 | 0 | 4 days - 10 months | 38 | 10 | 7 | 6 | 2 | 0 | 0 | 0 | 0 | 0 | 0 | 0 | – | – | – | –
